Columns and labels:
[1] = molecular target: ABCB1 (P-glycoprotein, MDR1) (Homo sapiens, UniProt P08183); assay: vanadate-sensitive ATPase assay, crude membranes of High Five cells; type: biochemical
ABCC10 (MRP7) = molecular target: T1, ABCC10 (MRP7) (Homo sapiens, UniProt Q5T3U5); assay: [3H]-paclitaxel efflux, HEK293/ABCC10 versus HEK293/pcDNA3.[…] cells; type: cell-based; settings: labelled compound; 0.1 μmol/L; 37°C
T1 sequence (Q5T3U5 1-1492): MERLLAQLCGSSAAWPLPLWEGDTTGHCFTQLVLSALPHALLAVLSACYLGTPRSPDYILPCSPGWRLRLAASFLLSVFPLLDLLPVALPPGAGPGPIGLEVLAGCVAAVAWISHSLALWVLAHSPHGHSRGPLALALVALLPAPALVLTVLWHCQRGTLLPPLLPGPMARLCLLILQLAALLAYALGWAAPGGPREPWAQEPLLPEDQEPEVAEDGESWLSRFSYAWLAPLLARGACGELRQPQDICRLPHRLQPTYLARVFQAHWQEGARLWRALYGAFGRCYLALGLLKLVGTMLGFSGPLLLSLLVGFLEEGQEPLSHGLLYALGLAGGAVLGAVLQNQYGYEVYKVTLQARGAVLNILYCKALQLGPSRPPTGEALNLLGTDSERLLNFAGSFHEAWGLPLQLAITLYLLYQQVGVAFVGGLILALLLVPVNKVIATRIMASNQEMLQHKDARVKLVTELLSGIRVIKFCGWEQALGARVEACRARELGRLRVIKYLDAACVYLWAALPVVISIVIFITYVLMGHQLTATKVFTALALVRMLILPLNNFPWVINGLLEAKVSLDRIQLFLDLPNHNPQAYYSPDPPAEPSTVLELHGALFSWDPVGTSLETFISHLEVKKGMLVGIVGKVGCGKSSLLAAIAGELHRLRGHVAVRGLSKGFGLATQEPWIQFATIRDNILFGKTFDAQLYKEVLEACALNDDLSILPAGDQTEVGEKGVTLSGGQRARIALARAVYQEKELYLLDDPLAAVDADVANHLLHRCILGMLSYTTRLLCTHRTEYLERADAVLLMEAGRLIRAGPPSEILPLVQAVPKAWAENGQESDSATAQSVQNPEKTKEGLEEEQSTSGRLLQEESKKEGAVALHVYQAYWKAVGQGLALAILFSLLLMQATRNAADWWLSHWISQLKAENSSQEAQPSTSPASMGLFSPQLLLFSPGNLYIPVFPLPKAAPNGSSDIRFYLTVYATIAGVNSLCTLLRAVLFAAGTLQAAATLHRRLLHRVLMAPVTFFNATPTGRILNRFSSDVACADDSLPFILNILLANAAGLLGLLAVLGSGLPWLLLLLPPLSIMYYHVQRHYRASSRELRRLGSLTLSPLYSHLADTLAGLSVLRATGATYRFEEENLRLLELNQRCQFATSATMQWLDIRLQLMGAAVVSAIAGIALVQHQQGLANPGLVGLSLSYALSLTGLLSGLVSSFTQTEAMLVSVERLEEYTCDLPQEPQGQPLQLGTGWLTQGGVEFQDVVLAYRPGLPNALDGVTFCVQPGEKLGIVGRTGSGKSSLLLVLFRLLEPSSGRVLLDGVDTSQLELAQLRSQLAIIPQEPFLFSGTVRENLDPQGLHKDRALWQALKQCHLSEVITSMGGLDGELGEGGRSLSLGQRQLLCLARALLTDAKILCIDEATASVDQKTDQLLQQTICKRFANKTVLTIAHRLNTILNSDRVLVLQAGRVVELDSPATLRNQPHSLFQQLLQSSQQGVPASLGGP

Chain of ABCB1 (P-glycoprotein, MDR1) (P08183 whole entry): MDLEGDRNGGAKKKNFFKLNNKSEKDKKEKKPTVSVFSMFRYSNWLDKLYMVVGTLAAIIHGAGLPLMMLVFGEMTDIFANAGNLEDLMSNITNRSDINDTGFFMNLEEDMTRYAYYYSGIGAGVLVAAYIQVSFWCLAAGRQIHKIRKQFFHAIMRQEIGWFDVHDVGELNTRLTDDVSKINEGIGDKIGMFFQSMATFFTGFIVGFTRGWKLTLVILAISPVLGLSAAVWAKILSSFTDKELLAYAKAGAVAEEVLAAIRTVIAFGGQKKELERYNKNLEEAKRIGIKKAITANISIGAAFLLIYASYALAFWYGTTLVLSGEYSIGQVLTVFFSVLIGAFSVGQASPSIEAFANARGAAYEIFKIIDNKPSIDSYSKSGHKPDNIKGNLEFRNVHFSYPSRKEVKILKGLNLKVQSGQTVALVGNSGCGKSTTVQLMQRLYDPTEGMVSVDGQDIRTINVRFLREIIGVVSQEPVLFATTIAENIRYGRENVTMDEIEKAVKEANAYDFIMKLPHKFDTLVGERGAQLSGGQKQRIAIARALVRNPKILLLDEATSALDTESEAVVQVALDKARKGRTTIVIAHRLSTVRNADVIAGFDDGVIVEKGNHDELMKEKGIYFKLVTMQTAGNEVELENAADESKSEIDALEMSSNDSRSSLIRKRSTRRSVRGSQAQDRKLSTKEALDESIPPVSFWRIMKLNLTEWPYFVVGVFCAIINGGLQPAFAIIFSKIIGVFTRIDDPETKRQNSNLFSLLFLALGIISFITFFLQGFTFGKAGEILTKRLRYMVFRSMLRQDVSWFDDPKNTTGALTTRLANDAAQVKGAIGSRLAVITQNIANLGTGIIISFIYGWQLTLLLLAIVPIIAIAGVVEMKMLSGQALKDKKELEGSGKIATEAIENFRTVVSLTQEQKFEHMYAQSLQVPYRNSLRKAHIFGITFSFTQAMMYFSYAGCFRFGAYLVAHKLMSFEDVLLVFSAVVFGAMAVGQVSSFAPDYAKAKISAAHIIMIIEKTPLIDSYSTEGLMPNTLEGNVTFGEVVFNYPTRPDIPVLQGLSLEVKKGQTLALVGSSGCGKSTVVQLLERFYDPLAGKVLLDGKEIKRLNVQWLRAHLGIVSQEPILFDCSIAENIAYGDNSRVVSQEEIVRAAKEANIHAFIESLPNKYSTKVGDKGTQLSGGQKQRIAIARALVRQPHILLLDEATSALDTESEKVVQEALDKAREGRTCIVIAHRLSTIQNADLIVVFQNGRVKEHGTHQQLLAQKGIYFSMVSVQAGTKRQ

C=CC(=O)N1CCC[C@@H](n2nc(-c3ccc(Oc4ccccc4)cc3)c3c(N)ncnc32)C1 [ibrutinib]
EC50 [1]: 641 nM

CC(=O)O[C@H]1C(=O)[C@@]2(C)[C@H]([C@H](OC(=O)c3ccccc3)[C@]3(O)C[C@H](OC(=O)[C@H](O)[C@@H](NC(=O)c4ccccc4)c4ccccc4)C(C)=C1C3(C)C)[C@]1(OC(C)=O)CO[C@@H]1C[C@@H]2O [paclitaxel]
[3H]-paclitaxel efflux, HEK293/ABCC10 versus HEK293/pcDNA3.1 cells (ABCC10 (MRP7)): KB-C2 and HEK293/ABCC10 cells efflux more [^3H]-paclitaxel out of the cells
